The text below walks through data of patent US20040076999A1, “Computer user interface facilitating acquiring and analyzing of biological specimen traits” (Baylor College of Medicine, priority 2002, published 2004).

In assay [1] the test system is wild-type flies. As to the kind of experiment: Motion tracking with wild-type flies. It is filed as in vivo, Drosophila. Conditions: flies fed 0.1M or 0.05M LiCl, compared to controls; FIG. 32. The procedure:
(§1) Each movie is first scored individually to give one value per score and movie. A single movie is therefore considered to be the experimental base unit. Thereafter average values and standard errors for all scores are calculated from the movie score values for all repeats for a vial. Those averages and standard errors are the values shown in the PhenoScreen program. The data that is used in the scoring process are the trajectories of the corresponding movie. Each trajectory consists of a list of x- and y-coordinates of the position of the fly (and also size), with one list entry for every frame from when it starts moving in one frame until it stops in another.
Speed: The Speed score is calculated in the same way as the X-Speed score, but instead of only using the length of the x-component of the speed vector, the length of the whole vector is used. That is, [length]=square root of ([x-length]^2+[y-length]^2).
Turning: The Turning score is calculated in the same way as the Speed score, but instead of using the length of the speed vector, the absolute angle between the current speed vector and the previous one is used, giving a value between […].
Stumbling: The Stumbling score is calculated in the same way as the Speed score, but instead of using the length of the speed vector, the absolute angle between the current speed vector and the direction of body orientation is used, giving a value between 0 and 90 degrees.
Several sets of wild-type flies were assayed under various conditions to test the motion tracking software. Lithium Chloride (LiCl), a treatment for bipolar affective disorder in humans, is also known to induce behavioral changes in Drosophila (Xia et al., 1997). […] The results of this assay are shown in the bar graph of FIG. 32.

The test system of assay [2] is flies. The following applies: administered orally to flies; cited from earlier work.
Assay [3] concerns Drosophila. Conditions: feeding Drosophila; cited from earlier work.
Assay [4] has as its system Drosophila expressing a mutant form of human Huntington (HD). The experiment in a line: Motion tracking with Drosophila model of Huntington disease. It is filed as in vivo. Conditions: HD flies with drug versus wt flies. As for the experimental part:
as §1
Cross150: The Cross150 score is the number of trajectories that either crossed the line at x=150 in the negative x-direction (from bottom to top of the vial) during the movie, or that were already above that line at the start of the movie. […] In other words this score measures the number of detected flies that either managed to hold on to the tube or that managed to climb above the x=150 line within the length of the movie.
Drosophila expressing a mutant form of human Huntington (HD) have a functional deficit that is quantifiable, reproducible, and is suitable for automated high-throughput screening. Drosophila (or specimen) movements can be analyzed for various characteristics and/or traits. […]

With `[Cl-].[Li+]` [LiCl, Lithium Chloride], in assay [1], the incidence of stumbling result is on record as “increase incidence”, the incidence of turning entry is “increase incidence” and the speed result is recorded as “significant reduction”.

As to `CC1(C)O[C@@H]2[C@@H](CO[C@@]3(COS(N)(=O)=O)OC(C)(C)O[C@@H]23)O1` [Topiramate], in assay [2], the “mean recovery times following seizure” value is reported as “reduce” and the seizure entry is reported as “reduce”.

Take 4-phenylbutyrate [PBA]: in assay [3], the lifespan entry is given as “significantly increase” and the locomotor vigor result is listed as “without diminution”.

On to `NCC1(CC(=O)O)CCCCC1` [Gabapentin], for which, in assay [2], the “mean recovery times following seizure” value is reported as “reduce” and the seizure result is on record as “reduce”.

For `O=C1NC(=O)C(c2ccccc2)(c2ccccc2)N1` [Phenyloin], in assay [2], the “mean recovery times following seizure” value is reported as “reduce” and the seizure entry is “reduce”.

`CC(/C=C/C(=O)NO)=C\[C@@H](C)C(=O)c1ccc(N(C)C)cc1` [TSA]: in assay [4], the climbing ability result was “restore climbing ability for HD flies to almost the same level as for wt flies” and the “speed restored to wt level” value was “the same is not true for speed”.
